Measured values reported in article PMC10141580, “Cyclic Dichalcogenides Extend the Reach of Bioreductive Prodrugs to Harness Thiol/Disulfide Oxidoreductases: Applications to seco-Duocarmycins Targeting the Thioredoxin System” (ACS Central Science, 2023).
Like-named read-outs stand apart in the source and are kept apart here.

System: panel of 140 standard cancer cell lines
Test: ProliFiler-140 cancer cell line screen (CellTiterGlo, 72 h)
Format: cell-based
Description: Incubations were performed for 72 h before automated viability readout with CellTiterGlo (Figure 8).
End of Figure S11 (part 5 of 5): ProliFiler-140 cancer cell line screening for cytotoxicity of the prodrugs.
8-data-point dose response curves from CellTiter-Glo® viability readout.
ProliFiler-140 cell line panel part V

- IC50 (Homo sapiens, NCI-H2009, NCI-H2009 (Lung), read-out: IC50 [M] (ProliFiler-140)): 1.41e-07 M
- IC50 (Homo sapiens, NCI-H2228, H2228 (Lung), read-out: IC50 [M] (ProliFiler-140)): 5.73e-08 M
- IC50 (Homo sapiens, NCI-H2286, NCI-H2286 (Lung), read-out: IC50 [M] (ProliFiler-140)): 4.4e-08 M
- IC50 (Homo sapiens, NCI-N87, NCI-N87 (Stomach), read-out: IC50 [M] (ProliFiler-140)): 2e-07 M
- IC50 (Homo sapiens, OCI-AML-3, OCI-AML3 (Blood), read-out: IC50 [M] (ProliFiler-140)): 7.6e-08 M
- IC50 (Homo sapiens, OCI-AML-5, OCI-AML5 (Blood), read-out: IC50 [M] (ProliFiler-140)): 3.1e-08 M
- IC50 (Homo sapiens, OCI-LY19, OCI-LY19 (Blood), read-out: IC50 [M] (ProliFiler-140)): 5.55e-09 M
- IC50 (Homo sapiens, OPM-2, OPM-2 (Blood), read-out: IC50 [M] (ProliFiler-140)): 2.43e-07 M
- IC50 (Homo sapiens, OVCAR-3, OVCAR-3 (Ovary), read-out: IC50 [M] (ProliFiler-140)): 3.7e-07 M
- IC50 (Homo sapiens, OVCAR-3, OVCAR-3, read-out: IC50): 3.7e-07 M
- IC50 (Homo sapiens, P31-FUJ, P31/FUJ (Blood), read-out: IC50 [M] (ProliFiler-140)): 1e-07 M
- IC50 (Homo sapiens, PANC-1, PANC-1 (Pancreas), read-out: IC50 [M] (ProliFiler-140)): 8e-07 M
- IC50 (Homo sapiens, RL95-2, RL95-2 (Endometrium), read-out: IC50 [M] (ProliFiler-140)): 1.97e-07 M
- IC50 (Homo sapiens, RPMI-8226, RPMI 8226 (Blood), read-out: IC50 [M] (ProliFiler-140)): 8.84e-08 M
- IC50 (Homo sapiens, SAOS-2, Saos-2 EC (Bone), read-out: IC50 [M] (ProliFiler-140)): 2.02e-07 M
- IC50 (Homo sapiens, SCLC-21H, SCLC-21H (Lung), read-out: IC50 [M] (ProliFiler-140)): 2.91e-07 M
- IC50 (Homo sapiens, SJSA-1, SJSA-1 (Bone), read-out: IC50 [M] (ProliFiler-140)): 4.01e-07 M
- IC50 (Homo sapiens, SK-BR-3, SK-BR-3 (Breast), read-out: IC50 [M] (ProliFiler-140)): 1.3e-07 M
- IC50 (Homo sapiens, SK-ES1, SK-ES-1 (Bone), read-out: IC50 [M] (ProliFiler-140)): 2.61e-08 M
- IC50 (Homo sapiens, SK-LU-1, SK-LU-1 (Lung), read-out: IC50 [M] (ProliFiler-140)): 2.7e-07 M
- IC50 (Homo sapiens, SK-MEL3, SK-MEL-3 (Skin), read-out: IC50 [M] (ProliFiler-140)): 5.1e-07 M
- IC50 (Homo sapiens, SK-N-FI, SK-N-FI (Brain), read-out: IC50 [M] (ProliFiler-140)): 1.36e-06 M
- IC50 (Homo sapiens, SK-N-MC, SK-N-MC (Brain), read-out: IC50 [M] (ProliFiler-140)): 1.5e-08 M
- IC50 (Homo sapiens, SK-N-SH, SK-N-SH (Brain), read-out: IC50 [M] (ProliFiler-140)): 9.8e-08 M
- IC50 (Homo sapiens, SK-OV-3, SK-OV3 (Ovary), read-out: IC50 [M] (ProliFiler-140)): 1.76e-07 M
- IC50 (Homo sapiens, SNU1, SNU-1 (Stomach), read-out: IC50 [M] (ProliFiler-140)): 5.9e-08 M
- IC50 (Homo sapiens, SNU-16, SNU-16 (Stomach), read-out: IC50 [M] (ProliFiler-140)): 1.37e-07 M
- IC50 (Homo sapiens, SU-DHL-5, SU-DHL-5 (Blood), read-out: IC50 [M] (ProliFiler-140)): 9.1e-09 M
- IC50 (Homo sapiens, SW480, SW480 (Colon), read-out: IC50 [M] (ProliFiler-140)): 1.2e-07 M
- IC50 (Homo sapiens, SW948, SW948 (Colon), read-out: IC50 [M] (ProliFiler-140)): 3.46e-07 M
- IC50 (Homo sapiens, SW1783, SW-1783 (Brain), read-out: IC50 [M] (ProliFiler-140)): 2.99e-07 M
- IC50 (Homo sapiens, SW-620, SW620 (Colon), read-out: IC50 [M] (ProliFiler-140)): 3.06e-07 M
- IC50 (Homo sapiens, SiHa, SiHa (Ovary), read-out: IC50 [M] (ProliFiler-140)): 1.47e-07 M
- IC50 (Homo sapiens, T47D, T-47D (Breast), read-out: IC50 [M] (ProliFiler-140)): 4.3e-07 M
- IC50 (Homo sapiens, T98G, T98G (Brain), read-out: IC50 [M] (ProliFiler-140)): 1.17e-06 M
- IC50 (Homo sapiens, U2OS, U2OS (Bone), read-out: IC50 [M] (ProliFiler-140)): 1.14e-07 M
- IC50 (Homo sapiens, U-87 MG, U87MG (Brain), read-out: IC50 [M] (ProliFiler-140)): 1.6e-07 M
- IC50 (Homo sapiens, U-118-MG, U118MG (Brain), read-out: IC50 [M] (ProliFiler-140)): 2.57e-07 M
- IC50 (Homo sapiens, U-251, U251MG (Brain), read-out: IC50 [M] (ProliFiler-140)): 7.8e-07 M
- IC50 (Homo sapiens, U-266, U-266 (Blood), read-out: IC50 [M] (ProliFiler-140)): 1.11e-07 M
- IC50 (Homo sapiens, U-937, U-937 (Blood), read-out: IC50 [M] (ProliFiler-140)): 2.57e-08 M
- IC50 (Homo sapiens, ZR-75-1, ZR-75-1 (Breast), read-out: IC50 [M] (ProliFiler-140)): 1.35e-06 M
- IC50 (Ishikawa (Endometrium), listed as Dox, read-out: IC50 [M] (ProliFiler-140)): 7.74e-08 M
- IC50 (J82 (Bladder), read-out: IC50 [M] (ProliFiler-140)): 7.98e-07 M
- IC50 (JIMT-1 (Breast), listed as Dox, read-out: IC50 [M] (ProliFiler-140)): 1.29e-06 M
- IC50 (Jurkat (Blood), listed as Dox, read-out: IC50 [M] (ProliFiler-140)): 4e-08 M
- IC50 (K562 (Blood), listed as Dox, read-out: IC50 [M] (ProliFiler-140)): 4.42e-07 M
- IC50 (KG-1 (Blood), read-out: IC50 [M] (ProliFiler-140)): 1.21e-06 M
- IC50 (KG-1 a (Blood), listed as Dox, read-out: IC50 [M] (ProliFiler-140)): 4.9e-07 M
- IC50 (Kato III (Stomach), listed as Dox, read-out: IC50 [M] (ProliFiler-140)): 8.99e-07 M
- IC50 (LN229 (Brain), listed as Dox, read-out: IC50 [M] (ProliFiler-140)): 2.2e-07 M
- IC50 (LOU-NH91 (Lung), listed as Dox, read-out: IC50 [M] (ProliFiler-140)): 2.89e-07 M
- IC50 (LOU-NH91, LOU-NH91 (Lung), read-out: IC50 [M] (ProliFiler-140)): 2.9e-07 M
- IC50 (LP-1 (Blood), listed as Dox, read-out: IC50 [M] (ProliFiler-140)): 6.62e-07 M
- IC50 (LP-1 (Blood), read-out: IC50 [M] (ProliFiler-140)): 6.6e-07 M
- IC50 (LnCap (Prostate), listed as Dox, read-out: IC50 [M] (ProliFiler-140)): 1.92e-07 M
- IC50 (M07e (Blood), listed as Dox, read-out: IC50 [M] (ProliFiler-140)): 4.6e-08 M
- IC50 (M-07e, M07e (Blood), read-out: IC50 [M] (ProliFiler-140)): 4.63e-08 M
Structure (SMILES): COc1cccc2c1C(=O)c1c(O)c3c(c(O)c1C2=O)C[C@@](O)(C(=O)CO)C[C@@H]3O[C@H]1C[C@H](N)[C@H](O)[C@H](C)O1 [doxorubicin, reference compound]
